Test results reported in patent US20130079402A1, “Use of at Least One Dialkyl Thiosulfonate or Thiosulfinate for Reducing the Number of Apicomplexa in an Animal” (Pancosma S.A., priority 2010, published 2013).
Where two headings read alike, the source gives them in different places.

System: sporozoites of Eimeria tenella
Assay: Viability of Eimeria tenella sporozoites after 24 hours incubation with test compound (trypan blue exclusion)
Format: cell-based
Details: for percentage inhibition (effectiveness): concentration of 10 ppm; for inhibition at 100 ppm: Eimeria tenella, read-out: percentage inhibition (inhibitory or destructive effect on the sporozoites)
Experimental: The antiparasitic properties of the following compounds were tested: • a capsicum oleoresin (Capsicum frutescens pigment) containing 6% by weight of a mixture of capsaicin and dihydrocapsaicin; • carvacrol; • cinnamaldehyde; • curcumin; • anethole; • PTS (according to the invention); • PTSO (according to the invention); and • an extract (according to the invention) called “Garlicon 40” containing […] of organosulfur compounds characteristic of garlic/onion, 6.7% by weight of PTS and 34.3% by weight of PTSO.
A first series of samples consisting of an aqueous solution containing 100 ppm of the abovementioned test compounds, and a second series of samples containing only 10 ppm of these compounds, were prepared.
Next, in order to be able to test the effect of the abovementioned compounds on Eimeria, the following was carried out. Freshly sporulated oocysts were obtained from Eimeria tenella and were stored at 4° C. in a 2.5% (weight/volume) potassium dichromate solution until use.
The oocysts were then sterilized with bleach before isolating sporozoites. The walls of the oocysts were mechanically destroyed for 5 to 7 seconds using a ball mill having balls of 0.5 mm.
The product obtained was then incubated for 45 minutes at 41° C. in a PBS buffer solution containing 0.014 mol/l of taurodeoxycholic acid and 0.25% by weight of trypsin in order to release the sporozoites.
The fluids released by the excystation were filtered and the sporozoites collected were washed three times with RPMI-1640 medium with stirring at 2100 revolutions per minute for 10 minutes at 4° C.
Solutions of 10^6 sporozoites per milliliter were then prepared, and were left to incubate with the same volume of sample of test compound for 24 hours.
The viability of the sporozoites was then measured according to the trypan blue exclusion method.
The results can be seen on the appended single figure, in which the numbers located above each column indicate the percentage inhibition by the corresponding compound and the numbers which follow the name of the compound indicate its concentration.
A measurement was also carried out with a control solution (free of test compound) called “Control” on the figure.

[1] = concentration of 100 ppm, 24 hours incubation

Compound	percentage inhibition (effectiveness) (24 hours incubation) [%]	inhibition at 100 ppm [1] [%]	further results
CCCSS(=O)(=O)CCC [PTSO, di(n-propyl) thiosulfonate]	61		effectiveness at 10 ppm compared with 100 ppm (10 ppm versus 100 ppm): higher effectiveness at 10 ppm than at 100 ppm
COc1cc(/C=C/C(=O)CC(=O)/C=C/c2ccc(O)c(OC)c2)ccc1O [curcumin]		≥ 74	
Cc1ccc(C(C)C)cc1O [carvacrol]			inhibition at 100 ppm (24 h): ≥ 74%
O=CC=Cc1ccccc1 [cinnamaldehyde]		≥ 74	
CCCS[S+]([O-])CCC (stereo not drawn) [PTS, di(n-propyl) thiosulfinate]	87		
